Measured values from patent US20020035061A1, “COMPOSITIONS AND METHODS FOR TREATING INFECTIONS USING CATIONIC PEPTIDES ALONE OR IN COMBINATION WITH ANTIBIOTICS” (priority 1996, published 2002).
Values after ≈ are worked out from the molar mass of the structure shown. Where two headings read alike, the source gives them in different places.

Experiments:
[1] = tested on: mammalian red blood cells; conditions: 37° C., 1 hour
Experimental: Candidate cationic peptides may be further tested for their toxicity to normal mammalian cells. An exemplary assay is a red blood cell (RBC) (erythrocyte) hemolysis assay. Briefly, in this assay, red blood cells are isolated from whole blood, typically by centrifugation, and washed free of plasma components. A 5% (v/v) suspension of erythrocytes in isotonic saline is incubated with different concentrations of peptide analogue. […] After incubation for approximately 1 hour at 37° C., the cells are centrifuged, and the absorbance of the supernatant at 540 nm is determined. A relative measure of lysis is determined by comparison to absorbance after complete lysis of erythrocytes using NH4Cl or equivalent (establishing a 100% value). A peptide with <10% lysis at 100 μg/ml is suitable. Preferably, there is <5% lysis at 100 μg/ml. Such peptides that are not lytic, or are only moderately lytic, are desirable and suitable for further screening.
Cationic peptides are tested for toxicity towards eukaryotic cells by measuring the extent of lysis of mammalian red blood cells (RBC). Briefly, in this assay, red blood cells are separated from whole blood by centrifugation and washed free of plasma components. A 5% (v/v) washed red blood cell suspension is prepared in isotonic saline. An aliquot of peptide in formulation is then added and mixed in. After incubation at 37° C. for 1 hour with constant agitation, the solution is centrifuged and the supernatant measured for absorbance at 540 nm to detect released hemoglobin.
A combination of cationic peptide and antibiotic agent is tested for toxicity towards eukaryotic cells by measuring the extent of lysis of mammalian red blood cells. Briefly, red blood cells are separated from whole blood by centrifugation, washed free of plasma components, and resuspended to a 5% (v/v) suspension in isotonic saline. […] Following incubation with constant agitation at 37° C. for 1 hour, the solution is centrifuged, and the absorbance of the supernatant is measured at 540 nm, which detects released hemoglobin. […]

[2] = Single dose toxicity, intraperitoneal injection, formulations; conditions: mouse, in vivo, ip, outbred ICR mice (Table 32)
Experimental: The single dose toxicity of a cationic peptide and antibiotic agent combination is examined in outbred ICR mice. Intraperitoneal injection of the combination in isotonic saline is carried out at increasing dose levels. The survival of the animals is monitored for 7 days. The number of animals surviving at each dose level is used to determine the maximum tolerated dose (MTD). In addition, the MTD can be determined after administration of the peptide and agent by different routes, at different time points, and in different formulations.

[3] = Cell death by Cytotox (Promega) lactate dehydrogenase release; type: cell-based; conditions: LDH release
Experimental: In addition, APO-peptides and parent peptides are tested against a panel of cancer cell lines. Cell death is measured using the Cytotox (Promega) assay kit which measures the release of lactate dehydrogenase.
PBL, peripheral blood lymphocytes; HUVEC, human umbilical vein endothelial cells; H460,non-small lung tumor; K562, chronic myelogenous leukemia; DoHH-2, B-cell cell lymphoma; P388, lymphocytic leukemia; P388ADR, lymphocytic leukemia, multidrug resistant; MCF-7, breast carcinoma; MCF-7ADR, breast carcinoma, multidrug resistant.

For `CC[C@H](C)[C@H](NC(=O)[C@H](CC(C)C)NC(=O)[C@H](C)NC(=O)[C@@H]1CCCN1C(=O)[C@H](CC(C)C)NC(=O)CNC(=O)[C@@H](NC(=O)[C@@H](NC(=O)[C@H](CC(C)C)NC(=O)[C@@H](NC(=O)[C@H](CCCCN)NC(=O)[C@H](CCCCN)NC(=O)[C@@H](NC(=O)[C@H](C)NC(=O)[C@@H](NC(=O)[C@@H](NC(=O)[C@H](CC(C)C)NC(=O)[C@H](CCCCN)NC(=O)[C@H](CCCCN)NC(=O)[C@@H](NC(=O)[C@H](Cc1ccccc1)NC(=O)[C@H](CO)NC(=O)[C@H](CCCCN)NC(=O)[C@H](Cc1c[nH]c2ccccc12)NC(=O)[C@@H](N)CCCCN)[C@@H](C)CC)[C@@H](C)O)[C@@H](C)O)C(C)C)C(C)C)[C@@H](C)O)[C@@H](C)O)C(=O)N[C@@H](CO)C(=O)O` [MBI 29], the “% Lysis” value [1] was 1.9%, the MTD at 7 days [2] was 24 mg/kg and the CC50 ([3]; DoHH-2 B-cell lymphoma cells, read-out: LC50 ± S.E., DoHH-2) was 2.1 ± 0.5 µg/mL (≈ 0.731 µM). It also gave a CC50 ([3]; H460 non-small lung tumor cells, read-out: LC50 ± S.E., H460) of 12.6 ± 10 µg/mL (≈ 4.39 µM), a CC50 ([3]; K562, read-out: LC50 ± S.E., K562) of 1 µg/mL (≈ 0.348 µM) and a CC50 ([3]; MCF-7ADR multidrug resistant breast carcinoma cells, read-out: LC50 ± S.E., MCF-7 ADR) of 3.2 ± 1 µg/mL (≈ 1.11 µM). For the same compound, the CC50 ([3]; MCF-7 breast carcinoma cells, read-out: LC50 ± S.E., MCF-7) was 4 ± 2 µg/mL (≈ 1.39 µM), the CC50 ([3]; P388, read-out: LC50 ± S.E., P388) was 1.4 ± 0.5 µg/mL (≈ 0.487 µM) and the CC50 ([3]; P388 ADR, read-out: LC50 ± S.E., P388 ADR) was 2 ± 0.2 µg/mL (≈ 0.696 µM). For the same compound, the CC50 ([3]; PBL, peripheral blood lymphocytes, read-out: LC50 ± S.E., PBL) was 12 ± 10 µg/mL (≈ 4.18 µM) and the CC50 ([3]; human, human umbilical vein endothelial cells (HUVEC), read-out: LC50 ± S.E., HUVEC) was 10 µg/mL (≈ 3.48 µM).
